Experimental findings from publication PMC10304486, “The FilZ Protein Contains a Single PilZ Domain and Facilitates the Swarming Motility of Pseudoalteromonas sp. SM9913” (Microorganisms, 2023) are described below.

Common to all, as to test: isothermal titration calorimetry
Assay type in all cases: binding

The target of assay [1] is T1, FilZ (Pseudoalteromonas tetraodonis, UniProt A0AA37S473, R9A).
T1 construct: gene GCM10007914_23770; single PilZ domain protein

Assay [2] concerns the target T2, FilZ (Pseudoalteromonas tetraodonis, UniProt A0AA37S473).
T2 construct: gene GCM10007914_23770; single PilZ domain protein
T2 sequence (A0AA37S473 1-133): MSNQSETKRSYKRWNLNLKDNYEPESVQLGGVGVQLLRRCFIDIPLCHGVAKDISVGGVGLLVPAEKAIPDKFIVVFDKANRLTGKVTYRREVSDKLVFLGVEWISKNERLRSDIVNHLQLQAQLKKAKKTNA

The target in assay [3] is T3, FilZ (Pseudoalteromonas tetraodonis, UniProt A0AA37S473, R13A).
T3 construct: gene GCM10007914_23770; single PilZ domain protein
T3 sequence (A0AA37S473 entry or part of it R13A): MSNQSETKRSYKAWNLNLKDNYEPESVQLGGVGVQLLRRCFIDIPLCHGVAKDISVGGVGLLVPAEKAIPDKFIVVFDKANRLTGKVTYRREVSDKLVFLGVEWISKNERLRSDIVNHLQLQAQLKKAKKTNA

The target in assay [4] is T4, FilZ (Pseudoalteromonas tetraodonis, UniProt A0AA37S473, G58A).
T4 construct: gene GCM10007914_23770; single PilZ domain protein
T4 sequence (A0AA37S473 entry or part of it G58A): as the sequence (A0AA37S473 entry or part of it R13A) above, with A13R, G58A counted along it

The target in assay [5] is T5, FilZ (Pseudoalteromonas tetraodonis, UniProt A0AA37S473, D53A).
T5 construct: gene GCM10007914_23770; single PilZ domain protein
T5 sequence (A0AA37S473 entry or part of it D53A): as the sequence (A0AA37S473 entry or part of it R13A) above, with A13R, D53A counted along it

Assay [6] addresses T6, FilZ (Pseudoalteromonas tetraodonis, UniProt A0AA37S473, G101A).
T6 construct: gene GCM10007914_23770; single PilZ domain protein

T1 sequence (A0AA37S473 entry or part of it R9A): as the sequence (A0AA37S473 entry or part of it R13A) above, with R9A, A13R counted along it
T6 sequence (A0AA37S473 entry or part of it G101A): as the sequence (A0AA37S473 entry or part of it R13A) above, with A13R, G101A counted along it

Usually Kd stands for the concentration at which binding is half-saturated. A high value points to weaker binding. Consider `Nc1nc2c(ncn2[C@@H]2O[C@@H]3COP(=O)(O)O[C@H]4[C@@H](O)[C@H](n5cnc6c(=O)[nH]c(N)nc65)O[C@@H]4COP(=O)(O)O[C@H]3[C@H]2O)c(=O)[nH]1` [c-di-GMP], for which the “completely lost the ability to bind” value at FilZ [1] is “Mutants R9A, R13A, D53A, G58A, and G101A all completely lost the ability to bind c-di-GMP”; on FilZ [3], “Mutants R9A, R13A, D53A, G58A, and G101A all completely lost the ability to bind c-di-GMP”; at FilZ [4], “Mutants R9A, R13A, D53A, G58A, and G101A all completely lost the ability to bind c-di-GMP”; on FilZ [5] it was “Mutants R9A, R13A, D53A, G58A, and G101A all completely lost the ability to bind c-di-GMP”; at FilZ [6], “Mutants R9A, R13A, D53A, G58A, and G101A all completely lost the ability to bind c-di-GMP”. The compound also showed a Kd at FilZ [2] of 230 nM.
